# Measured values published in patent publication US20230096766A1, “AMINO ACID HAVING FUNCTIONAL GROUP CAPABLE OF INTERMOLECULAR HYDROGEN BONDING, PEPTIDE COMPOUND CONTAINING SAME AND METHOD FOR PRODUCTION THEREOF” (Chugai Seiyaku Kabushiki Kaisha, priority 2018, published 2023).
# *1 amine or outer side, *2 acyl side, *3 side chain or, on linkers, in order; H or OH if unused. Where a SMILES comes first, the peptide text is derived from it. Bridges are numbered along the chain shown (N, C = ends). [ ]: non-standard residue; d: D form. The star is where a group is joined. NMePhe(3-Cl) = CN[C@@H](Cc1cccc(Cl)c1)C(=O)O; Tyr(3-F) = N[C@@H](Cc1ccc(O)c(F)c1)C(=O)O; NMehPhe = CN[C@@H](CCc1ccccc1)C(=O)O; X6 = O=C([C@H](CCCCO)N[*:1])[*:2]; NMeF = CN[C@@H](Cc1ccccc1)C(=O)O; NMeI = CC[C@H](C)[C@H](NC)C(=O)O; Butyl(3-Me,3-OH) = CC(C)(O)CC*; CH2CH(OH)CF3 = OC(C*)C(F)(F)F; NMeL = CN[C@@H](CC(C)C)C(=O)O; NMeV = CN[C@H](C(=O)O)C(C)C; NMeAbu = CC[C@H](NC)C(=O)O; NMeA = CN[C@@H](C)C(=O)O; Piperidide = C1CCN(*)CC1; dAbu = CC[C@@H](N)C(=O)O; X8 = C1COC[C@@H](C*)N1; NBuGly = CCCCNCC(=O)O; Isopentyl = CC(C)CC*; NPrGly = CCCNCC(=O)O; Propyl(3-OH) = OCCC*; X3 = C[C@H](O)C*; Sar = CNCC(=O)O; tBu = CC(C)(C)*
# Experiment: in vitro
# Settings: human
# [1] = Caco-2, Caco-2 (membrane permeability)
SMILES,"Papp (Caco-2, Caco-2 (cm/sec)) [×10⁻⁶ cm/s]",further results
CCCCN1CC(=O)N(C)[C@@H](Cc2cccc(Cl)c2)C(=O)N(C)[C@@H](CC(C)C)C(=O)N[C@@H](COCCCO)C(=O)N(C)[C@@H](CC(C)C)C(=O)N[C@H](C(=O)N2CCCCC2)CC(=O)N(C)CC(=O)N(C)[C@@H](Cc2ccccc2)C(=O)N[C@@H]([C@@H](C)CC)C(=O)N(C)[C@@H](CC(C)C)C(=O)N[C@@H]([C@@H](C)O)C1=O [AP96] ([Sar][NMeF]I[NMeL]T[NBuGly][NMePhe(3-Cl)][NMeL]S(Propyl(3-OH))[NMeL]D-Piperidide; lactam N-11),0.17,–
CC[C@H]1C(=O)N(C)[C@@H](Cc2ccccc2)C(=O)N[C@@H](CC(C)C)C(=O)N(C)[C@@H](CC(C)C)C(=O)N(C)[C@@H](CC(C)C)C(=O)N[C@@H](COC[C@@H]2COCCN2)C(=O)N(C)CC(=O)N(C)[C@@H](CC(C)C)C(=O)N[C@H](C(=O)N2CCCCC2)CC(=O)N(C)[C@@H](C)C(=O)N[C@@H](CC(C)C)C(=O)N1C [AP246] ([NMeA]L[NMeAbu][NMeF]L[NMeL][NMeL]S(X8)[Sar][NMeL]D-Piperidide; lactam N-11),0.23,–
CC(C)C[C@@H]1NC(=O)[C@H](Cc2ccccc2)N(C)C(=O)[C@H](C)NC(=O)C[C@@H](C(=O)N2CCCCC2)NC(=O)[C@H](Cc2ccccc2)N(C)C(=O)[C@H](Cc2ccccc2)N(C)C(=O)[C@H](COC(C)(C)C)NC(=O)[C@H](CC(C)C)N(C)C(=O)CN(C)C(=O)[C@H]([C@@H](C)O)NC(=O)[C@H](CC(C)C)N(C)C1=O [pd217] (A[NMeF]L[NMeL]T[Sar][NMeL]S(tBu)[NMeF][NMeF]D-Piperidide; lactam N-11),1.1,–
CC[C@H]1NC(=O)C[C@@H](C(=O)N2CCCCC2)NC(=O)[C@H](CC(C)C)N(C)C(=O)[C@H](Cc2cccc(Cl)c2)N(C)C(=O)[C@H](CCCCO)NC(=O)[C@H](CC(C)C)N(C)C(=O)CN(C)C(=O)[C@H]([C@@H](C)O)NC(=O)[C@H](CC(C)C)N(C)C(=O)[C@H](CC(C)C)NC(=O)[C@H](CCc2ccccc2)N(C)C1=O [Compound B02] ([dAbu][NMehPhe]L[NMeL]T[Sar][NMeL][X6][NMePhe(3-Cl)][NMeL]D-Piperidide; lactam N-11),0.15,–
CCCCN1CC(=O)N(C)[C@@H](CC(C)C)C(=O)N[C@@H](CC(C)C)C(=O)N(C)[C@@H](Cc2ccccc2)C(=O)N(C)[C@@H]([C@@H](C)CC)C(=O)N[C@H](C(=O)N2CCCCC2)CC(=O)N[C@H](CC(C)C)C(=O)N(C)[C@@H](Cc2ccccc2)C(=O)N[C@@H](CCC(=O)NC)C(=O)N(C)[C@@H](CC(C)C)C(=O)N[C@@H]([C@@H](C)O)C1=O [Compound J01] ([dL][NMeF]E(NHMe)[NMeL]T[NBuGly][NMeL]L[NMeF][NMeI]D-Piperidide; lactam N-11),–,Papp [1]: 0.062 ×10⁻⁶ cm/s
CCCCN1CC(=O)N(C)[C@@H](Cc2ccccc2)C(=O)N(C)[C@@H](CC(C)C)C(=O)N[C@@H](COC(C)(C)C)C(=O)N(C)[C@@H](CC(C)C)C(=O)N[C@H](C(=O)N2CCCCC2)CC(=O)N(C)CC(=O)N(C)[C@@H](Cc2cccc(Cl)c2)C(=O)N[C@@H](COCC(O)C(F)(F)F)C(=O)N(C)[C@@H](CC(C)C)C(=O)N[C@@H]([C@@H](C)O)C1=O (stereo partly drawn) [Compound C06] ([Sar][NMePhe(3-Cl)]S(CH2CH(OH)CF3)[NMeL]T[NBuGly][NMeF][NMeL]S(tBu)[NMeL]D-Piperidide; lactam N-11),–,Papp [1]: 0.48 ×10⁻⁶ cm/s
CC[C@H](C)[C@H]1C(=O)N[C@@H]([C@@H](C)O)C(=O)N(C)CC(=O)N(C)[C@@H](CC(C)C)C(=O)N[C@H](C(=O)N2CCCCC2)CC(=O)N(C)[C@@H](C(C)C)C(=O)N[C@@H](CC(C)C)C(=O)N(C)[C@@H](CC(C)C)C(=O)N(C)[C@@H](Cc2ccccc2)C(=O)N[C@@H](COC[C@H](C)O)C(=O)N(C)[C@@H](Cc2ccccc2)C(=O)N1C [AP66] ([NMeV]L[NMeL][NMeF]S(X3)[NMeF][NMeI]T[Sar][NMeL]D-Piperidide; lactam N-11),0.68,–
CC(C)C[C@@H]1NC(=O)[C@H](Cc2ccccc2)N(C)C(=O)[C@H](CC(C)C)N(C)C(=O)[C@H](Cc2ccccc2)NC(=O)[C@H](C)NC(=O)C[C@@H](C(=O)N2CCCCC2)NC(=O)[C@H](Cc2ccccc2)N(C)C(=O)CN(C)C(=O)[C@H](Cc2ccccc2)NC(=O)[C@H](CC(C)C)N(C)C(=O)[C@H]([C@@H](C)O)NC1=O [pd244] (AF[NMeL][NMeF]LT[NMeL]F[Sar][NMeF]D-Piperidide; lactam N-11),–,"Papp (Caco-2, Caco-2 (cm/sec) Papp): 0.045 ×10⁻⁶ cm/s"
CC[C@H](C)[C@@H]1NC(=O)[C@H](CC(C)C)N(C)C(=O)[C@@H](C)NC(=O)C[C@@H](C(=O)N2CCCCC2)NC(=O)[C@H](C)N(C)C(=O)[C@H](Cc2ccccc2)N(C)C(=O)[C@H](COC(C)(C)C)NC(=O)[C@H](CC(C)C)N(C)C(=O)CN(C)C(=O)[C@H](Cc2ccc(O)c(F)c2)NC(=O)[C@H](CC(C)C)N(C)C1=O [pd124] ([dA][NMeL]I[NMeL][Tyr(3-F)][Sar][NMeL]S(tBu)[NMeF][NMeA]D-Piperidide; lactam N-11),0.32,–
CC(C)C[C@H]1C(=O)N[C@H](C(=O)N2CCCCC2)CC(=O)N(C)[C@@H](C)C(=O)N[C@@H](Cc2ccc(O)c(F)c2)C(=O)N(C)[C@@H](CC(C)C)C(=O)N(C)[C@@H](CC(C)C)C(=O)N[C@@H](C(C)C)C(=O)N(C)[C@@H](Cc2ccccc2)C(=O)N(C)[C@@H](CC(C)C)C(=O)N[C@@H]([C@@H](C)O)C(=O)N(C)CC(=O)N1C [pd122] ([NMeA][Tyr(3-F)][NMeL][NMeL]V[NMeF][NMeL]T[Sar][NMeL]D-Piperidide; lactam N-11),0.46,–
CCCCN1CC(=O)N(C)[C@@H](CC(C)C)C(=O)N[C@H](C(=O)N2CCCCC2)CC(=O)N(C)[C@@H](C)C(=O)N[C@@H](COCC(O)C(F)(F)F)C(=O)N(C)[C@@H](CC(C)C)C(=O)N(C)[C@@H](Cc2ccccc2)C(=O)N[C@@H](CC(C)C)C(=O)N(C)[C@@H](Cc2ccccc2)C(=O)N(C)[C@@H]([C@@H](C)CC)C(=O)N[C@@H]([C@@H](C)O)C1=O (stereo partly drawn) [Compound C04] ([NMeA]S(CH2CH(OH)CF3)[NMeL][NMeF]L[NMeF][NMeI]T[NBuGly][NMeL]D-Piperidide; lactam N-11),–,Papp [1]: 0.29 ×10⁻⁶ cm/s
"CC(C)CCOC[C@@H]1NC(=O)[C@H](CC(C)C)N(C)C(=O)CN(C)C(=O)[C@H]([C@@H](C)O)NC(=O)[C@H](CC(C)C)N(C)C(=O)[C@H](COCCC(C)(C)O)NC(=O)[C@H](Cc2ccccc2)N(C)C(=O)[C@@H](C(C)C)NC(=O)C[C@@H](C(=O)N2CCCCC2)NC(=O)[C@H](CC(C)C)N(C)C(=O)[C@H](Cc2ccccc2)N(C)C1=O [AP51] ([dV][NMeF]S(Butyl(3-Me,3-OH))[NMeL]T[Sar][NMeL]S(Isopentyl)[NMeF][NMeL]D-Piperidide; lactam N-11)",1.4,–
CCCN1CC(=O)N(C)[C@@H](CC(C)C)C(=O)N[C@@H](COC[C@H](C)O)C(=O)N(C)[C@@H](Cc2cccc(Cl)c2)C(=O)N(C)[C@@H](C(C)C)C(=O)N[C@H](C(=O)N2CCCCC2)CC(=O)N[C@H](C(C)C)C(=O)N(C)[C@@H](Cc2ccccc2)C(=O)N[C@@H](CC(C)C)C(=O)N(C)[C@@H](CC(C)C)C(=O)N[C@@H]([C@@H](C)O)C1=O [AP70] ([dV][NMeF]L[NMeL]T[NPrGly][NMeL]S(X3)[NMePhe(3-Cl)][NMeV]D-Piperidide; lactam N-11),0.75,–
CC(C)C[C@@H]1NC(=O)[C@H](CC(C)C)N(C)C(=O)[C@H](C)N(C)C(=O)C[C@@H](C(=O)N(C)[C@@H](Cc2ccccc2)C(=O)N[C@@H](C)C(=O)N2CCCCC2)NC(=O)[C@H]([C@@H](C)O)NC(=O)[C@H](CC(C)C)N(C)C(=O)[C@H](Cc2ccccc2)NC(=O)[C@H](Cc2ccccc2)N(C)C(=O)[C@H](CC(C)C)N(C)C1=O [pd218] ([NMeA][NMeL]L[NMeL][NMeF]F[NMeL]TD[NMeF]A-Piperidide; lactam N-9),1.1,–
